Values joined by “and” are separate entries in the source; they are usually repeats but may differ in a detail not shown here. Equal entries are not always repeated. Where two headings read alike, the source gives them in different places.
How the values were obtained:
[1] = Pharmacokinetic studies in rats (plasma and brain); assay type: in vivo
Protocol: Because binding to plasma protein was approximately 90%, we predicted that the free concentration at each time point was 10 times lower than the measured plasma concentration.
Pharmacokinetic studies in rats. Pharmacokinetics studies were contracted to the Drug Metabolism and Pharmacokinetics Core at Scripps Research. CP612 was dissolved at in 10% Tween-80/90% water and administered at 40 mg/kg/5 mL. Six rats were injected i.v. and 6 were injected i.p. Three rats were used to collect a full plasma time course from 5 minutes to 24 hours after dose. Then, brains were collected from these rats at 24 hours and from 3 additional rats at 2 hours after administration of compound. One rat receiving i.p. administration of CP612 was excluded as it had low/nondetectable levels indicating missed i.p. injection in that rat. Plasma samples were diluted 10-fold in blank plasma. Each brain was disrupted in potassium phosphate buffer (pH 7.4; 9 μL per 1mg tissue) on ice using brief sonication pulses. CP612 was detected with an API Triple Quad 5500 LC-MS/MS (SCIEX) using an MRM(+) method: CP612 (463/282, m/z) with carbamazepine (238/195.1, m/z) as an internal standard.

CLK4 = target: T1, CLK4 (Homo sapiens, UniProt Q9HAZ1); assay: scanMax kinome panel, CLK4; assay type: binding; details: 200 nM CP612; read-out: scanMax % of control, CLK4
T1 construct: purchased Eurofins-DiscoverX
T1 sequence (Q9HAZ1 whole entry): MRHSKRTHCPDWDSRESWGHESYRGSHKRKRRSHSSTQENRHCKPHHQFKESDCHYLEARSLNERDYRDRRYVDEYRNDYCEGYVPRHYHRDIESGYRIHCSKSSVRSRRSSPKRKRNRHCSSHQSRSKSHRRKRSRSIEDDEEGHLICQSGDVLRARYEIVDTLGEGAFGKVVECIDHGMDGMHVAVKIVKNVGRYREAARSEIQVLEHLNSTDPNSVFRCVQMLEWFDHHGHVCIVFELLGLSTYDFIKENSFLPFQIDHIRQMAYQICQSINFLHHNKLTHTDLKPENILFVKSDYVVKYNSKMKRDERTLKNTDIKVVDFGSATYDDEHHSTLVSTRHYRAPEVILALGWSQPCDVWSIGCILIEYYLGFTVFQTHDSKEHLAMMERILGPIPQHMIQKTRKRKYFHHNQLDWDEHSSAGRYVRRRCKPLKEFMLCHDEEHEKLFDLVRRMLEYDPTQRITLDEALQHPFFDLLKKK
Protocol: (§1) CP612 was screened for kinome specificity at 200 nM against 468 kinases using the scanMax assay panel from Eurofins-DiscoverX. CP612 inhibited 10 other WT kinases besides PKCε, all to < 10% of control: CLK1 (CDC Like Kinase 1), CLK4, PKN1 (Protein kinase N1), PKN2, PKCδ, PKCη, PKCθ, PRKG2 (Protein Kinase CGMP-Dependent 2), ROCK1, and ROCK2.

PKCδ = PKCδ (Homo sapiens, UniProt Q05655); assay: scanMax kinome panel, PKCδ; assay type: binding; design: purchased Eurofins-DiscoverX; details: 200 nM CP612; read-out: scanMax % of control, PKCδ
Chain of PKCδ (Q05655 whole entry): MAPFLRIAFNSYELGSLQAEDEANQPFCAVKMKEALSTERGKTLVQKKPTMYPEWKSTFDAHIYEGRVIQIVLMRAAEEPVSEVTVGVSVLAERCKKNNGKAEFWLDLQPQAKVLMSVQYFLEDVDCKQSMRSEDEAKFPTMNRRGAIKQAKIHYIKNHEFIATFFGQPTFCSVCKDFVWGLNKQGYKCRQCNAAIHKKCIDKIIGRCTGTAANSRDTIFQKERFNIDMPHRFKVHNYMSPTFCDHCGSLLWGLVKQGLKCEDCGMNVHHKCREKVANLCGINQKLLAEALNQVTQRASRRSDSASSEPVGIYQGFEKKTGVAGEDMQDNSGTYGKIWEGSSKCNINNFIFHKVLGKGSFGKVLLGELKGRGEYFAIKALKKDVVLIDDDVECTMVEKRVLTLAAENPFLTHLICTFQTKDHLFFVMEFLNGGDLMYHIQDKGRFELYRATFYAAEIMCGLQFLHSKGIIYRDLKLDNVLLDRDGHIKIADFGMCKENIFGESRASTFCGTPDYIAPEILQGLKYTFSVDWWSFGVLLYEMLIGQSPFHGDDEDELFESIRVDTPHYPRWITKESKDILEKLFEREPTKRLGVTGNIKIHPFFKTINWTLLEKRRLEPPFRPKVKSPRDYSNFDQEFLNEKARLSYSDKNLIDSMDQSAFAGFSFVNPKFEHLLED
Protocol: as §1

[2] = system: morphine self-administration
[3] = rat, i.v. 40 mg/kg, 24h, individual rat, 40 mg/kg
[4] = rat, plasma, ip, 40 mg/kg, i.p. 40 mg/kg, individual rat
[5] = rat, plasma, ip, 40 mg/kg, i.p. 40 mg/kg, mean all rats
[6] = rat, plasma, iv, 40 mg/kg, i.v. 40 mg/kg, individual rat
[7] = rat, plasma, iv, 40 mg/kg, i.v. 40 mg/kg, mean all rats

## N[C@H](CNC(=O)C1(c2ccc(Cl)cc2)CCCC1)c1ccc(C(=O)Nc2ccncc2)cc1 [CP612]
[1]; [3]
  Brain/Plasma: 11.80 and 2.82 and 12.90
  Plasma concentration: 0.1270 µM and 0.2873 µM and 0.1609 µM
[1]; rat, i.v. 40 mg/kg, 24h, individual rat, 40 mg/kg, read-out: Brain concentration
  concentration at 2 h: 1.4990 µM and 0.8100 µM and 2.0757 µM
[1]; rat, i.v. 40 mg/kg, individual rat, 40 mg/kg
  Plasma 2h/24h: 88.9456 and 42.9323 and 75.0336
[1]; rat, i.v. 40 mg/kg, mean all rats
  Plasma 2h/24h: 68.9705
[1]; rat, i.v. 40 mg/kg, mean of RM Plasma + Brain 24h rats
  Plasma 2h/24h: 68.9705
[1]; rat, ip, rats, 40 mg/kg i.p., plasma
  Cmax: 29.3 ± 1 µM
[1]; rat, iv, rats, 40 mg/kg i.v., plasma
  Cmax: 104 ± 3.1 µM
[1]; [4]
  concentration at 15 min: 22 µM
  concentration at 30 min: 30.2 µM
  concentration at 1 h: 28.3 µM
  concentration at 4 h: 5.16 µM
  concentration at 6 h: 1.91 µM
  concentration at 8 h: 2.29 µM
[1]; [5]
  concentration at 15 min: 21.9 µM
  concentration at 30 min: 25.4 µM
  concentration at 1 h: 28.3 µM
  concentration at 4 h: 5.82 µM
  concentration at 6 h: 1.89 µM
  concentration at 8 h: 2.13 µM
[1]; rat, plasma, ip, 40 mg/kg, rat, i.p. 40 mg/kg, 2h, individual rat, read-out: Plasma concentration
  concentration at 2 h: 14.4 µM
[1]; rat, plasma, ip, 40 mg/kg, rat, i.p. 40 mg/kg, 2h, mean all rats, read-out: Plasma concentration
  concentration at 2 h: 15 µM
[1]; rat, plasma, ip, 40 mg/kg, rat, i.p. 40 mg/kg, 2h, mean of Plasma 2h, Brain 2h rats, read-out: Plasma concentration
  concentration at 2 h: 15.1 µM
[1]; rat, plasma, ip, 40 mg/kg, rat, i.p. 40 mg/kg, 2h, mean of RM Plasma + Brain 24h rats, read-out: Plasma concentration
  concentration at 2 h: 14.7 µM
[1]; rat, plasma, ip, 40 mg/kg, rat, i.p. 40 mg/kg, 24h, individual rat, read-out: Plasma concentration
  concentration at 24 h: 0.38 µM
[1]; rat, plasma, ip, 40 mg/kg, rat, i.p. 40 mg/kg, 24h, mean all rats, read-out: Plasma concentration
  concentration at 24 h: 0.498 µM
[1]; rat, plasma, ip, 40 mg/kg, rat, i.p. 40 mg/kg, 24h, mean of RM Plasma + Brain 24h rats, read-out: Plasma concentration
  concentration at 24 h: 0.498 µM
[1]; rat, plasma, ip, rats, 40 mg/kg i.p.
  half-life: 6.8 ± 0.7 h
[1]; [6]
  concentration at 5 min: 80.3 µM
  concentration at 15 min: 57 µM
  concentration at 1 h: 26.4 µM
  concentration at 4 h: 3.97 µM
  concentration at 6 h: 1.68 µM
  concentration at 8 h: 1.42 µM
[1]; [7]
  concentration at 5 min: 80.3 µM
  concentration at 15 min: 52.6 µM
  concentration at 30 min: 28.5 µM
  concentration at 1 h: 24.8 µM
  concentration at 4 h: 4.11 µM
  concentration at 6 h: 1.55 µM
  concentration at 8 h: 1.41 µM
[1]; rat, plasma, iv, 40 mg/kg, rat, i.v. 40 mg/kg, 2h, individual rat, read-out: Plasma concentration
  concentration at 2 h: 11.3 µM
[1]; rat, plasma, iv, 40 mg/kg, rat, i.v. 40 mg/kg, 2h, mean all rats, read-out: Plasma concentration
  concentration at 2 h: 13.9 µM
[1]; rat, plasma, iv, 40 mg/kg, rat, i.v. 40 mg/kg, 2h, mean of Plasma 2h, Brain 2h rats, read-out: Plasma concentration
  concentration at 2 h: 16 µM
[1]; rat, plasma, iv, 40 mg/kg, rat, i.v. 40 mg/kg, 2h, mean of RM Plasma + Brain 24h rats, read-out: Plasma concentration
  concentration at 2 h: 11.9 µM
[1]; rat, plasma, iv, 40 mg/kg, rat, i.v. 40 mg/kg, 24h, mean all rats, read-out: Plasma concentration
  concentration at 24 h: 0.192 µM
[1]; rat, plasma, iv, 40 mg/kg, rat, i.v. 40 mg/kg, 24h, mean of RM Plasma + Brain 24h rats, read-out: Plasma concentration
  concentration at 24 h: 0.192 µM
[1]; rat, plasma, iv, rats, 40 mg/kg i.v.
  half-life: 4 ± 0.6 h
[1]; rats, i.p. or i.v. injection
  Brain penetration: brain penetrant
CLK4
  remaining binding at 0.2 µM: < 10%
PKCδ
  remaining binding at 0.2 µM: < 10%
[2]; CP612 30 mg/kg i.p. 18 hours prior, 30 mg/kg
  Effect on morphine self-administration (breaking point and self-infusions): did not modify self-administration
[2]; rats, morphine SA 18 h after CP612, average of last 3 days, infusions
  Inf (avg last 3 days): 8 and 12
